Experimental data from patent US10030020B2, “Spirocycle compounds and methods of making and using same” (Abide Therapeutics, Inc., priority 2016, dated 2018).
Where two headings read alike, the source gives them in different places.

Assays:
[1] = biological target: T1, ABHD6 (Mus musculus (Mouse), UniProt Q8R2Y0); test: In vitro competitive activity-based protein profiling (mouse brain membrane fraction or cell lysates), ABHD6 band; type: biochemical; settings: for inhibition at 1 µM: read-out: ABHD6 % Inh 1 μM (mouse)
T1 sequence (Q8R2Y0 whole entry): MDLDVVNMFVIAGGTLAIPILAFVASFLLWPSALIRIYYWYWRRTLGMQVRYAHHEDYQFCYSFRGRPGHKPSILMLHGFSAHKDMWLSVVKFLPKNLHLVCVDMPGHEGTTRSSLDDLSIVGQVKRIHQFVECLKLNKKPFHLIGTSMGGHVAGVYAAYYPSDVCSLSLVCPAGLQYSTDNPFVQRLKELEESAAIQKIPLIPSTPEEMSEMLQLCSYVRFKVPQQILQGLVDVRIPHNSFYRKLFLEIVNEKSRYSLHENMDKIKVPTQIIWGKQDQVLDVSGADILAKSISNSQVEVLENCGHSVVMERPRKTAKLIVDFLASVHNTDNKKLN
In short: (§1)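 Residual hydrolase activity was measured as gel band fluorescence after FP-Rh labelling (30 min, 37° C) of proteomes pretreated 30 min at 37° C with inhibitor.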

[2] = biological target: T2, MAGL (Mus musculus (Mouse), UniProt O35678); test: Mouse brain proteomes from inhibitor treated mice (oral gavage, sacrificed 4 h after administration, ABPP analysis); type: in vivo, mouse (C57Bl/6J); settings: 5 mg/kg oral gavage
T2 sequence (O35678 whole entry): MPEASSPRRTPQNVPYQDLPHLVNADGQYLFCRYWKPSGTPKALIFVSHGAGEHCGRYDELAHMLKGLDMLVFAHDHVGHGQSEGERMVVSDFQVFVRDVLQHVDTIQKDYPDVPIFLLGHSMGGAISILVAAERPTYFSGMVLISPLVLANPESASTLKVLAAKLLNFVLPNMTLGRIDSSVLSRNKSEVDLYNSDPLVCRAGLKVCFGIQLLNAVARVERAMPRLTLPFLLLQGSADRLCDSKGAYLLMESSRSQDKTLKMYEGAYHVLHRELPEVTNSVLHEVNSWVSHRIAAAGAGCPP
In short: (§2)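 Read-out is % inhibition at 5 mg/kg in brain proteomes profiled by activity-based protein profiling. Inhibitors were dosed orally to wild-type C57Bl/6J mice, with sacrifice at 4 h.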

[3] = biological target: T1, ABHD6; test: Mouse brain proteomes from inhibitor treated mice (oral gavage, sacrificed 4 h after administration, ABPP analysis), ABHD6; type: in vivo, mouse (C57Bl/6J); settings: 5 mg/kg oral gavage
In short: as §2

[4] = biological target: T3, FAAH (Mus musculus (Mouse), UniProt O08914); test: In vitro competitive activity-based protein profiling (mouse brain membrane fraction or cell lysates), FAAH band; type: biochemical; settings: for inhibition at 1 µM: read-out: FAAH % Inh 1 μM (mouse)
T3 sequence (O08914 whole entry): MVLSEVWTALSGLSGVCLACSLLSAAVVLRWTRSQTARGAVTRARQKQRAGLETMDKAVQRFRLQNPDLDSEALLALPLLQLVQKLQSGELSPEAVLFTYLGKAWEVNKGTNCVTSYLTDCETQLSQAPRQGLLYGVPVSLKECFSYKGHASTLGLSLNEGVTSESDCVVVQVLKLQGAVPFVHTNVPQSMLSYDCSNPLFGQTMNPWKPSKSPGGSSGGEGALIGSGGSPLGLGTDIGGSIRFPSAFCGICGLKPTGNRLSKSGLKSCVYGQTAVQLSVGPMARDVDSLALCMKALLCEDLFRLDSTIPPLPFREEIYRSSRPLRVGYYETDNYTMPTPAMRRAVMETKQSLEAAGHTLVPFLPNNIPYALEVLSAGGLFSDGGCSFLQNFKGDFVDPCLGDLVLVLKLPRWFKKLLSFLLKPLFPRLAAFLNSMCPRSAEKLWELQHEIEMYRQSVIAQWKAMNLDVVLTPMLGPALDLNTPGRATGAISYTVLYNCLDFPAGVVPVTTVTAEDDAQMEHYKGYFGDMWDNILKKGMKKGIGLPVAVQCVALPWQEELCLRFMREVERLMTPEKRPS
In short: as §1

[5] = biological target: T3, FAAH; test: Mouse brain proteomes from inhibitor treated mice (oral gavage, sacrificed 4 h after administration, ABPP analysis), FAAH; type: in vivo, mouse (C57Bl/6J); settings: 5 mg/kg oral gavage
In short: as §2

[6] = biological target: MAGL (Homo sapiens (Human), UniProt Q99685); test: In vitro competitive activity-based protein profiling (human prefrontal cortex or cell membrane fractions; hMAGL expressed in HEK293T cells); type: biochemical
Chain of MAGL (Homo sapiens (Human), UniProt Q99685) (Q99685 whole entry): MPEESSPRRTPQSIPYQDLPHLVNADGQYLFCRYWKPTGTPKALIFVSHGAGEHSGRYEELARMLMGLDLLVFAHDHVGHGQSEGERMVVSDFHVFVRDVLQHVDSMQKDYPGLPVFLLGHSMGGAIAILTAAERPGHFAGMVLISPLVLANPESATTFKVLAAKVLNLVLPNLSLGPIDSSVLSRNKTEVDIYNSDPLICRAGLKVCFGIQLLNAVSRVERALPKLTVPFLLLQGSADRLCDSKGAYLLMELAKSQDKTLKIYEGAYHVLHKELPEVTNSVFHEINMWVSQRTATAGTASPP
In short: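 Human prefrontal cortex or cell membrane proteomes (1.0-2.0 mg/mL), or lysates of HEK293T cells expressing hMAGL diluted into mock proteome, preincubated with inhibitor 30 min at 37° C. FP-Rh or JW912 probe then added for 30 min at room temperature. Residual labeling resolved by SDS-PAGE.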

[7] = biological target: T2, MAGL; test: In vitro competitive activity-based protein profiling (mouse brain membrane fraction or cell lysates), MAGL band; type: biochemical; settings: for inhibition at 1 µM: read-out: MAGL % Inh 1 μM (mouse)
Protocol: In Vitro Competitive Activity-Based Protein Profiling.
Proteomes (mouse brain membrane fraction or cell lysates) (50 μL, 1.0 mg/mL total protein concentration) were preincubated with varying concentrations of inhibitors at 37° C. After 30 min, FP—Rh (1.0 μL, 50 μM in DMSO) was added and the mixture was incubated for another 30 min at 37° C. Reactions were quenched with SDS loading buffer (50 μL-4×) and run on SDS-PAGE.

[8] = human proteome, competitive ABPP
[9] = mouse proteome, competitive ABPP

| Structure (SMILES) | inhibition at 1 µM ([1]; mouse proteome) | MAGL % Inh 5 mg/kg (mouse) [2] | ABHD6 % Inh 5 mg/kg (mouse) [3] | inhibition at 1 µM ([4]; mouse proteome) | FAAH % Inh 5 mg/kg (mouse) [5] | IC50 [6, 8] | inhibition at 1 µM ([7]; mouse proteome) | IC50 [1, 9] | IC50 [4, 9] | IC50 [7, 9] | inhibition at 1 µM ([1]; mouse) | inhibition at 1 µM ([4]; mouse) | IC50 ([6]; human) | inhibition at 1 µM ([7]; mouse) | IC50 ([1]; mouse) | IC50 ([4]; mouse) | IC50 ([7]; mouse) |
| --- | --- | --- | --- | --- | --- | --- | --- | --- | --- | --- | --- | --- | --- | --- | --- | --- | --- |
| O=C(O)C1CCN(Cc2cc(Cl)cc(CN3CCCC34CCN(C(=O)OC(C(F)(F)F)C(F)(F)F)CC4)c2)CC1 [Example 194, 1-(3-Chloro-5-((8-(((1,1,1,3,3,3-hexafluoropropan-2-yl)oxy)carbonyl)-1,8-diazaspiro[4.5]decan-1-yl)methyl)benzyl)piperidine-4-carboxylic acid] | < 25% | ## (## is equal to or greater than 25% but less than 75%) | # (# is <25%) | < 25% | # (# is <25%) | < 100 nM | > 75% | – | – | – | – | – | – | – | – | – | – |
| CC1(C(=O)O)CN(c2cc(CN3CCCC34CCN(C(=O)OC(C(F)(F)F)C(F)(F)F)CC4)cc(C(F)(F)F)c2)CCO1 (centres unmarked) [Example 195, 4-(3-((8-(((1,1,1,3,3,3-hexafluoropropan-2-yl)oxy)carbonyl)-1,8-diazaspiro[4.5]decan-1-yl)methyl)-5-(trifluoromethyl)phenyl)-2-methylmorpholine-2-carboxylic acid] | < 25% | # (# is <25%) | # (# is <25%) | < 25% | # (# is <25%) | < 100 nM | > 75% | > 1000 nM | > 1000 nM | < 100 nM | – | – | – | – | – | – | – |
| O=C(O)[C@@H]1CCCCN1c1cc(CN2CCCC23CCN(C(=O)OC(C(F)(F)F)C(F)(F)F)CC3)cc(C(F)(F)F)c1 [Example 196, (S)-1-(3-((8-(((1,1,1,3,3,3-Hexafluoropropan-2-yl)oxy)carbonyl)-1,8-diazaspiro[4.5]decan-1-yl)methyl)-5-(trifluoromethyl)phenyl)piperidine-2-carboxylic acid] | < 25% | ### (### is ≥75%) | # (# is <25%) | < 25% | # (# is <25%) | < 100 nM | > 75% | – | – | – | – | – | – | – | – | – | – |
| O=C(O)C1CN(c2cc(C(F)(F)F)ccc2CN2CCCC23CCN(C(=O)OC(C(F)(F)F)C(F)(F)F)CC3)CCO1 (centres unmarked) [Example 197, 4-(2-((8-(((1,1,1,3,3,3-Hexafluoropropan-2-yl)oxy)carbonyl)-1,8-diazaspiro[4.5]decan-1-yl)methyl)-5-(trifluoromethyl)phenyl)morpholine-2-carboxylic acid] | 25 to 75% | # (# is <25%) | # (# is <25%) | < 25% | # (# is <25%) | < 100 nM | > 75% | > 1000 nM | > 1000 nM | 100 to 1000 nM | – | – | – | – | – | – | – |
| O=C(O)C1CCN(c2cc(C(F)(F)F)ccc2CN2CCCC23CCN(C(=O)OC(C(F)(F)F)C(F)(F)F)CC3)C1 (centres unmarked) [Example 199] | 25 to 75% | ## (## is equal to or greater than 25% but less than 75%) | # (# is <25%) | < 25% | # (# is <25%) | < 100 nM | > 75% | > 1000 nM | > 1000 nM | < 100 nM | – | – | – | – | – | – | – |
| O=C(O)C1COCCN1c1cc(CN2CCCC23CCN(C(=O)OC(C(F)(F)F)C(F)(F)F)CC3)cc(C(F)(F)F)c1 (centres unmarked) [Example 200] | < 25% | ## (## is equal to or greater than 25% but less than 75%) | # (# is <25%) | < 25% | # (# is <25%) | < 100 nM | > 75% | – | – | – | – | – | – | – | – | – | – |
| N#Cc1cc(CN2CCCC23CCN(C(=O)OC(C(F)(F)F)C(F)(F)F)CC3)cc(N2CCC(C(=O)O)CC2)c1 [Example 210] | < 25% | ### (### is ≥75%) | ## (## is equal to or greater than 25% but less than 75%) | < 25% | # (# is <25%) | < 100 nM | > 75% | – | – | – | – | – | – | – | – | – | – |
| O=C(O)[C@@H]1CCCN(c2cc(C(F)(F)F)ccc2CN2CCC3(CCN(C(=O)OC(C(F)(F)F)C(F)(F)F)CC3)C2)C1 [Example 211] | < 25% | ## (## is equal to or greater than 25% but less than 75%) | # (# is <25%) | < 25% | # (# is <25%) | < 100 nM | > 75% | – | – | – | – | – | – | – | – | – | – |
| O=C(O)[C@@H]1CCCN(c2cc(C(F)(F)F)ccc2CN2CCCC23CCN(C(=O)OC(C(F)(F)F)C(F)(F)F)CC3)C1 [Example 214] | < 25% | ### (### is ≥75%) | # (# is <25%) | < 25% | # (# is <25%) | < 100 nM | > 75% | – | – | – | – | – | – | – | – | – | – |
| CC1(C(=O)O)CCCN(c2cc(C(F)(F)F)ccc2CN2CCC3(CCN(C(=O)OC(C(F)(F)F)C(F)(F)F)CC3)C2)C1 (centres unmarked) [Example 216] | 25 to 75% | ## (## is equal to or greater than 25% but less than 75%) | # (# is <25%) | < 25% | # (# is <25%) | < 100 nM | > 75% | – | – | – | – | – | – | – | – | – | – |
| O=C(O)[C@H]1CCCN(c2cc(C(F)(F)F)ccc2CN2CCCC23CCN(C(=O)OC(C(F)(F)F)C(F)(F)F)CC3)C1 [Example 217] | < 25% | ### (### is ≥75%) | # (# is <25%) | < 25% | # (# is <25%) | < 100 nM | > 75% | – | – | – | – | – | – | – | – | – | – |
| CC1(C(=O)O)CCCN(c2cc(CN3CCCC34CCN(C(=O)OC(C(F)(F)F)C(F)(F)F)CC4)cc(C(F)(F)F)c2)C1 (centres unmarked) [Example 221] | – | ### (### is ≥75%) | # (# is <25%) | – | # (# is <25%) | – | – | – | – | – | < 25% | < 25% | < 100 nM | > 75% | – | – | – |
| CC1(C(=O)O)CCN(c2cc(C(F)(F)F)ccc2CN2CCCC23CCN(C(=O)OC(C(F)(F)F)C(F)(F)F)CC3)C1 (centres unmarked) [Example 230] | – | ## (## is equal to or greater than 25% but less than 75%) | # (# is <25%) | – | # (# is <25%) | – | – | – | – | – | < 25% | < 25% | < 100 nM | > 75% | – | – | – |
| O=C(O)C1CCN(c2cc(F)cc(CN3CCCC34CCN(C(=O)OC(C(F)(F)F)C(F)(F)F)CC4)c2)CC1 [Example 236] | – | ### (### is ≥75%) | # (# is <25%) | – | # (# is <25%) | – | – | – | – | – | < 25% | < 25% | < 100 nM | > 75% | – | – | – |
| O=C(O)C1CCN(Cc2cc(C(F)(F)F)ccc2CN2CCCC23CCN(C(=O)OC(C(F)(F)F)C(F)(F)F)CC3)CC1 [Example 238] | – | ### (### is ≥75%) | # (# is <25%) | – | # (# is <25%) | – | – | – | – | – | < 25% | < 25% | < 100 nM | > 75% | > 1000 nM | > 1000 nM | 100 to 1000 nM |
| O=C(O)C1CCN(c2cc(S(F)(F)(F)(F)F)ccc2CN2CCCC23CCN(C(=O)OC(C(F)(F)F)C(F)(F)F)CC3)CC1 [Example 240] | – | ### (### is ≥75%) | # (# is <25%) | – | # (# is <25%) | – | – | – | – | – | < 25% | < 25% | < 100 nM | > 75% | – | – | – |
| O=C(O)C1CCN(Cc2cc(CN3CCCC34CCN(C(=O)OC(C(F)(F)F)C(F)(F)F)CC4)cc(C(F)(F)F)c2)CC1 [Example 244] | – | ### (### is ≥75%) | # (# is <25%) | – | # (# is <25%) | – | – | – | – | – | < 25% | < 25% | < 100 nM | > 75% | – | – | – |
